Measurements published in patent US4510140A, “Therapeutically effective ω-(4-(2-pyridyl)-piperazino)-alkanoylanilides” (priority 1981, dated 1985).
Like-named read-outs stand apart in the source and are kept apart here.

Legend:
[1] = LD50 determined in the mouse (C. S. Weil method); design: unit not given here; conditions: in vivo
Description: Accordingly, the present invention also features pharmaceutical compositions comprising a pharmaceutically effective amount of a compound having the structural formula (I) as above-defined, or a pharmaceutically acceptable salt thereof, in admixture with conventional pharmaceutically acceptable dileunt or carrier. Suitable such carriers and unit dosage amounts will be apparent to those skilled in this art. Compare, for example, Remington's Pharmaceutical Sciences, 4th Edition (1970). The LD50 of the alkanoylanilides according to the invention was determined in the mouse, both in C. S. Weil, following the method describedBiometrics, 8, 249 (1952). The results obtained were as follows, with the designating for the active compounds corresponding to those set forth in the following specific examples: […]

[2] = tested on: passive cutaneous anaphylaxis; experiment: PCA Test: passive cutaneous anaphylaxis induced in the rat with homologous antibodies (Goose and Blair); inhibition of spot areas; type: in vivo; conditions: read-out: PCA Test - ED50 (inhibition of spot areas)
Protocol: In order to evaluate the antianaphylactic activity of the subject novel compounds, the method of Goose and Blair was followed, in which passive cutaneous anaphylaxis was induced in the rat with homologous antibodies [Immunology, 16, 749 (1969)]. Female albino rats were immunized intramuscularly with egg albumin and intraperitoneally with Hemophylus pertussis vaccine.
Twelve days after treatment, the animals were bled and the sera thus obtained were injected intradermally into another group of rats. Twenty-four hours later, the animals were challenged with an i.v. solution of ovoalbumin and Evans blue dye, and sacrificed after 30 minutes. The test drugs were administered by different routes of administration and at different times before the challenge. Inhibition of spot areas (ED50) was determined.

[3] = tested on: bronchospasm induced by histamine; experiment: Antibronchospastic activity (Konzett and Rossler): inhibition of bronchospasm induced in anaesthetized guinea-pig by histamine; type: in vivo; conditions: Cavia porcellus, iv, 1 min, read-out: ED75 (inhibition of histamine-induced bronchospasm)
Protocol: The antibronchospastic activity was determined according to the method of Konzett and Rossler [Arch. exp. Path. Pharmakol., 195, 71 (1940)], determining the inhibition of bronchospasm induced in anaesthetized guinea-pig by histamine. For this purpose, the bronchospasms were induced by administering intravenously to the animals 0.5-2.5 μg/Kg of hystamine. Inhibition (ED75) was determined one minute after the injection of the drug under test, and the results obtained are reported in the following Table III: […]

[4] = anaesthetized guinea-pig, i.v., histamine 0.5-2.5 μg/Kg i.v., one minute after injection of the drug

Row | Structure (SMILES) | LD50 ([1]; ip) | ED50 ([2]; Rattus norvegicus, ip) [µmol/kg] | LD50 ([1]; po, os) | ED75 [3] [µmol/kg] | ED50 ([2]; Rattus norvegicus, po) [µmol/kg] | ED50 ([2]; po, rat, os) [µmol/kg] | ED50 ([2]; rat, ip) [µmol/kg] | ED75 [3, 4] [µmol/kg]
1 | Cc1cccc(C)c1NC(=O)CN1CCN(c2ccccn2)CC1 [compound 1] | 0.9 | 337 |  |  |  |  |  | 
2 | Cc1cc(C)c(C)c(NC(=O)CN2CCN(c3ccccn3)CC2)c1C [compound 2] | 0.65 | 212 |  |  |  |  |  | 
3 | COc1ccc(NC(=O)CCN2CCN(c3ccccn3)CC2)cc1 [compound 3] | 0.71 | 19 | 1.16 | 0.24 |  |  |  | 
4 | O=C(CCN1CCN(c2ccccn2)CC1)Nc1cccc([N+](=O)[O-])c1 [compound 4] | 0.42 | 56 | 2.07 | 0.37 | 68 |  |  | 
5 | CC(=O)c1ccc(OCc2ccccc2)c(NC(=O)CCN2CCN(c3ccccn3)CC2)c1 [compound 5] | 0.91 | 89 | 1.21 | 3.89 |  |  |  | 
6 | O=C(CCN1CCN(c2ccccn2)CC1)Nc1ccc([N+](=O)[O-])cc1 [compound 6] | 0.47 | 27 | 0.81 | 0.94 |  |  |  | 
7 | Nc1ccc(NC(=O)CCN2CCN(c3ccccn3)CC2)cc1 [compound 7] | 1.11 | 27 | 1.29 | 0.02 | 74 |  |  | 
8 | O=C(CCN1CCN(c2ccccn2)CC1)Nc1ccc(NC(=O)Nc2ccccc2)cc1 [compound 8] | > 2.25 |  | > 6.7 |  |  |  |  | 
9 | CCC(=O)Nc1ccc(NC(=O)CCN2CCN(c3ccccn3)CC2)cc1 [compound 11] | 1.05 | 160 | 1.53 | 0.23 |  |  |  | 
10 | CCOC(=O)C(=O)Nc1ccc(NC(=O)CCN2CCN(c3ccccn3)CC2)cc1 [compound 12] | > 2.35 |  | > 7.05 |  |  | 180 | 130 | 0.23
11 | CC(=O)c1ccc(NC(=O)CCN2CCN(c3ccccn3)CC2)cc1 [compound 13] | 0.48 | 104 | 1.5 | 0.02 |  |  |  | 
12 | CC(O)c1ccc(NC(=O)CCN2CCN(c3ccccn3)CC2)cc1 (stereo not shown) [compound 14] | 3.25 | 32 | 5.97 | 0.48 | 106 |  |  | 
13 | Cc1cc(C)c(C)c(NC(=O)CCN2CCN(c3ccccn3)CC2)c1C [compound 15] | 0.57 | 19 |  | 1.56 | 26 |  |  | 
14 | O=C(CCN1CCN(c2ccccn2)CC1)Nc1ccccc1 [compound 16] | 1.16 | 64 | 1.35 | 1.93 | 61 |  |  | 
15 | Cc1ccccc1NC(=O)CCN1CCN(c2ccccn2)CC1 [compound 17] | 1.01 |  | 1.58 | 0.47 | 67 |  |  | 
16 | Cc1cccc(C)c1NC(=O)CCN1CCN(c2ccccn2)CC1 [compound 18] | 0.8 | 81 |  | 1.57 | 13 |  |  | 
17 | CCOc1ccc(NC(=O)CCN2CCN(c3ccccn3)CC2)cc1 [compound 19] | 0.69 |  | 0.92 | 0.14 | 54 |  |  | 
18 | O=C(CCN1CCN(c2ccccn2)CC1)Nc1ccc(O)cc1 [compound 20] | > 2.5 |  | 5.2 |  |  | 170 | 120 | 0.49
19 | O=C(CCN1CCN(c2ccccn2)CC1)Nc1ccc(O)c([N+](=O)[O-])c1 [compound 21] | 2.38 | 270 | 3.74 | 1.1 | 160 |  |  | 

Row | Structure (SMILES) | LD50 ([1]; ip) | ED50 ([2]; Rattus norvegicus, ip) [µmol/kg] | LD50 ([1]; po, os) | ED75 [3] [µmol/kg] | ED50 ([2]; Rattus norvegicus, po) [µmol/kg] | ED50 ([2]; po, rat, os) [µmol/kg] | ED50 ([2]; rat, ip) [µmol/kg] | ED75 [3, 4] [µmol/kg]
20 | Nc1ccccc1NC(=O)CCN1CCN(c2ccccn2)CC1 [compound 22] | 3.2 |  | 2.08 | 1.63 | 100 |  |  | 
21 | Nc1cccc(NC(=O)CCN2CCN(c3ccccn3)CC2)c1 [compound 23] | 0.9 |  | 0.85 | 0.61 | 170 |  |  | 
22 | CC1CN(c2ccccn2)CCN1CCC(=O)Nc1ccc(N)cc1 (stereo not shown) [compound 24] | 1.18 |  | 2.97 | 0.59 | 39 |  |  | 
23 | COc1cccc(N2CCN(CCC(=O)Nc3ccc(N)cc3)CC2)n1 [compound 25] | 0.53 | 110 | 1.6 | 0.4 | 55 |  |  | 
24 | CC(=O)Nc1ccc(NC(=O)CCN2CCN(c3ccccn3)CC2)cc1 [compound 27] |  |  | > 6.81 |  |  | 92 | 120 | 0.97
25 | CNC(=O)Nc1ccc(NC(=O)CCN2CCN(c3ccccn3)CC2)cc1 [compound 28] | > 2.15 |  | > 6.5 |  |  | 73 |  | 0.29
26 | O=C(CCN1CCN(c2ccccn2)CC1)Nc1ccccc1[N+](=O)[O-] [compound 29] | 2.08 |  | 3.7 | 0.58 |  |  |  | 
27 | CC1CN(c2ccccn2)CCN1CCC(=O)Nc1ccc([N+](=O)[O-])cc1 (stereo not shown) [compound 30] | 0.42 |  | 1.2 | 1.75 | 230 |  |  | 
28 | COc1cccc(N2CCN(CCC(=O)Nc3ccc([N+](=O)[O-])cc3)CC2)n1 [compound 31] |  |  | 4.39 |  | 130 |  |  | 
29 | O=C(CCN1CCN(c2ccccn2)CC1)Nc1cc([N+](=O)[O-])cc([N+](=O)[O-])c1 [compound 32] |  |  | 1.57 | 2.4 |  |  |  | 
30 | O=C(CCN1CCN(c2ccccn2)CC1)Nc1ccccc1Cl [compound 33] | 1.29 | 151 | 2.64 | 1.12 | 47 |  |  | 
31 | COc1cccc(N2CCN(CCC(=O)Nc3ccccc3[N+](=O)[O-])CC2)n1 [compound 34] |  |  | > 7.1 |  |  |  |  | 
32 | O=C(CCN1CCN(c2ccccn2)CC1)Nc1ccc(Cl)cc1 [compound 35] | 0.62 |  | 0.96 | 2.27 | 39 |  |  | 
33 | O=C(CCN1CCN(c2ccccn2)CC1)Nc1c(Cl)cccc1Cl [compound 36] | 0.8 |  | 1.24 | 0.4 | 29 |  |  | 
34 | O=C(CCN1CCN(c2ccccn2)CC1)Nc1cccc(C(F)(F)F)c1 [compound 37] | 0.56 |  | 1.17 |  |  |  |  | 
35 | COc1cccc(N2CCN(CCC(=O)Nc3ccccc3N)CC2)n1 [compound 38] | 0.37 |  | 0.67 |  | 44 |  |  | 
36 | CC(=O)c1ccccc1NC(=O)CCN1CCN(c2ccccn2)CC1 [compound 39] | 2.3 |  | > 6.91 | 0.89 | 73 |  |  | 
37 | CSc1ccc(NC(=O)CCN2CCN(c3ccccn3)CC2)cc1 [compound 42] |  |  | > 8.4 |  |  |  |  | 
38 | N#Cc1ccc(NC(=O)CCN2CCN(c3ccccn3)CC2)cc1 [compound 43] | 0.39 |  | 0.62 |  |  |  |  | 
